From article PMC12624831, “Expanding Peptide Chemical Space via Acid-Mediated Arginine Modification” (Organic Letters, 2025)
*1 amine or outer side, *2 acyl side, *3 side chain or, on linkers, in order; H or OH if unused. Where a SMILES comes first, the peptide text is derived from it. [ ]: non-standard residue; d: D form. The star is where a group is joined. NH(CH2CH2O)2(CH2)6Cl = ClCCCCCCOCCOCCN*; Suc = O=C(CCC(=O)[*:2])[*:1]; 2Pyrimidinyl = c1cnc(*)nc1; Orn = NCCC[C@H](N)C(=O)O

System: HEK cells stably expressing a HaloTag-GFP-mitochondrial localized construct
Experiment: Chloroalkane penetration/permeability assay (CAPA)
Type: in vitro ADME
Conditions: modified peptide versus its unmodified control (ct-1l, ct-1m)
Method: at room temperature. Peptides were synthesized using standard protocols. Peptides were cleaved from the resin using a cocktail of 95:5, trifluoroacetic acid:water for 2 h. The resin was removed by filtration, and the resulting solution was concentrated via air flow. The residue was washed with cold ether (3 x 10 mL), precipitating a white solid. Ether was removed via vacuum overnight. The white solid was diluted with ACN/H2O mixture. The resulting solution was purified by HPLC.
VI. BD FACSymphony™ Flow Cytometer. Flow cytometry analysis was performed on a BD FACSymphony™ system equipped with decagon (2-10 PMTs) or cascade (2-20 PMTs) detector arrays. […] Signal detection combines PMTs (side scatter/fluorescence) and photodiodes (forward scatter), with longpass dichroic and bandpass filters for wavelength selection. […] The absorbance of the molecule is 533 nm and emission is […]
VII. […] After recovery from selection and reaching near-confluency, the cells were deemed ready for CAPA experiments. […]
Experimental Protocol Design Control Implementation. […] No-molecule control wells receive only dilution buffer during the pulse step, thereby establishing the maximum red fluorescence baseline. […]

| Compound | increase in membrane permeability following conversion of arginine into the amino pyrimidine derivative [fold] |
| --- | --- |
| CC(C)[C@H](NC(=O)CCC(=O)NCCOCCOCCCCCCCl)C(=O)NCC(=O)N[C@@H](CCCNc1ncccn1)C(=O)N[C@@H](C)C(=O)N[C@@H](Cc1c[nH]c2ccccc12)C(=O)N[C@@H](CC(N)=O)C(=O)N[C@@H](Cc1ccc(O)cc1)C(=O)N[C@@H](C)C(N)=O [ct-2m] ({NH(CH2CH2O)2(CH2)6Cl-Suc}-VG[Orn](2Pyrimidinyl)AWNYA-NH2) | 2 |
| CC[C@H](C)[C@H](NC(=O)[C@H](CO)NC(=O)[C@@H](NC(=O)[C@@H]1CCCN1C(=O)[C@H](CCCNc1ncccn1)NC(=O)[C@H](Cc1c[nH]c2ccccc12)NC(=O)CCC(=O)NCCOCCOCCCCCCCl)C(C)C)C(N)=O [ct-2l] ({NH(CH2CH2O)2(CH2)6Cl-Suc}-W[Orn](2Pyrimidinyl)PVSI-NH2) | 2 |
